Some test systems named below: ACHN renal; HCT-116 colon; MALME-3M melanoma; NCI-H460 lung; OVCAR-3 ovarian; OVCAR-8 ovarian; SN12C renal; SNB-75 CNS; SW-620 colon.
What all share (test): inhibition of tumour cell growth, NCI panel, 48 h

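A five-concentration, 48-hour dose response in 96-well plates underlies each endpoint, interpolated linearly between surrounding concentrations. The concentration for 50% growth inhibition is given as GI50. TGI marks complete inhibition of growth.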

For the molecule `COc1ccc(-c2cc(=O)c3ccccc3o2)cc1N`, the TGI in the assay on ACHN renal, in the assay with HCT-116 colon, in the assay with MALME-3M melanoma, in the assay with NCI-H460 lung, with OVCAR-3 ovarian and with OVCAR-8 ovarian was > 100 µM in each case. Besides, the figures for the TGI in the assay with SN12C renal, in the assay with SNB-75 CNS and in the assay on SW-620 colon were > 100 µM, 93.2 µM and > 100 µM, respectively.

As for `CCN(CC)CCCNC(=O)C1COc2cc(-c3cc(=O)c4ccccc4o3)ccc2O1` (centres undefined), the TGI was > 100 µM with ACHN renal; > 100 µM with HCT-116 colon; 36.8 µM with MALME-3M melanoma; > 100 µM in the assay on NCI-H460 lung; > 100 µM in the assay on OVCAR-3 ovarian; > 100 µM with OVCAR-8 ovarian. The TGI in the assay with SN12C renal, in the assay with SNB-75 CNS and with SW-620 colon was > 100 µM throughout.

Regarding `CC(=O)c1cccc(C)c1C(=O)O`, the TGI in the assay with ACHN renal, with HCT-116 colon, with MALME-3M melanoma, in the assay with NCI-H460 lung, in the assay on OVCAR-3 ovarian and in the assay with OVCAR-8 ovarian was > 100 µM throughout. The TGI in the assay with SN12C renal, in the assay on SNB-75 CNS and with SW-620 colon was > 100 µM in each case.

Take `CCOC(=O)/C(=C\c1ccc(N(CCC#N)CCC#N)cc1)NC(=O)c1cc([N+](=O)[O-])ccc1Cl`: the TGI in the assay with ACHN renal, in the assay on HCT-116 colon, with MALME-3M melanoma, in the assay on NCI-H460 lung, in the assay on OVCAR-3 ovarian and in the assay with OVCAR-8 ovarian was > 100 µM throughout. In addition, the TGI in the assay on SN12C renal, with SNB-75 CNS and in the assay on SW-620 colon was > 100 µM in each case.

Consider `CC1=C(C(=O)Nc2cc(=O)n(C)c(=O)n2C)C(c2cccc([N+](=O)[O-])c2)C(C(=O)Nc2cc(=O)n(C)c(=O)n2C)=C(C)N1`, for which the TGI with ACHN renal, in the assay with MALME-3M melanoma, with NCI-H460 lung, in the assay with OVCAR-3 ovarian, with OVCAR-8 ovarian and in the assay on SN12C renal was > 100 µM in each case. In addition, the TGI in the assay with SNB-75 CNS was 99.5 µM; in the assay on SW-620 colon it was > 100 µM.

As to `O=C1[C@H]2ON(c3ccccc3)C(c3ccccc3)[C@H]2C(=O)N1c1ccc(Cc2ccc(N3C(=O)[C@@H]4ON(c5ccccc5)C(c5ccccc5)[C@@H]4C3=O)cc2)cc1` (some centres undefined), the TGI with ACHN renal, in the assay on MALME-3M melanoma, in the assay with NCI-H460 lung, in the assay on OVCAR-3 ovarian, with SN12C renal and with SNB-75 CNS was > 100 µM in each case. Further, the TGI in the assay with SW-620 colon is > 100 µM.

Regarding `O=C1Cc2c([nH]c3ccccc23)-c2ccccc2N1`, the TGI was > 100 µM in the assay on ACHN renal; 31.9 µM in the assay with HCT-116 colon; > 100 µM in the assay on MALME-3M melanoma; > 100 µM in the assay on NCI-H460 lung; 68.2 µM with OVCAR-3 ovarian; > 100 µM in the assay with OVCAR-8 ovarian. Besides, the TGI is > 100 µM with SN12C renal, > 100 µM in the assay on SNB-75 CNS and 66.7 µM in the assay with SW-620 colon.

As for `C=C(C#N)C1OCC2OC(C)(C)OC21` (centres undefined), the TGI with ACHN renal worked out at 42.4 µM; in the assay with HCT-116 colon it was 38.4 µM; in the assay on NCI-H460 lung, 57.4 µM; with OVCAR-3 ovarian, 46 µM; in the assay on OVCAR-8 ovarian, 48.7 µM; in the assay with SN12C renal, 38.2 µM. Also, the results for the TGI with SNB-75 CNS and in the assay on SW-620 colon were 35.9 µM and 39.6 µM, respectively.

Regarding `O=C1O[C@H](c2ccccc2)[C@@H]2CC3(CCN12)OCCO3`, the TGI in the assay with ACHN renal, in the assay on HCT-116 colon, with NCI-H460 lung, with OVCAR-3 ovarian, in the assay on OVCAR-8 ovarian and in the assay with SN12C renal was > 100 µM in each case. The TGI with SW-620 colon is > 100 µM.

As to `CCOC(=O)Cc1ccc2c(c1O)C(=O)c1c(ccc(CC(=O)OCC)c1O)C2=O`, the TGI with ACHN renal, in the assay with HCT-116 colon, with MALME-3M melanoma, with OVCAR-3 ovarian, in the assay on OVCAR-8 ovarian and with SN12C renal was > 100 µM throughout. The TGI in the assay on SNB-75 CNS and with SW-620 colon was > 100 µM each time.

With `COC(=O)CC[C@]1(C)O[C@H]2[C@H]([C@@H](C)CCCC(C)=O)OC(=O)[C@@H]2C[C@H]1O`, the GI50 with ACHN renal was > 100 µM; with HCT-116 colon, > 100 µM; with NCI-H460 lung it was > 100 µM; in the assay on OVCAR-3 ovarian, 31.5 µM; with OVCAR-8 ovarian it was > 100 µM; in the assay on SN12C renal, > 100 µM. The GI50 with SNB-75 CNS and in the assay with SW-620 colon was > 100 µM throughout. The TGI in the assay on ACHN renal, in the assay on HCT-116 colon, in the assay on NCI-H460 lung, with OVCAR-3 ovarian, in the assay on OVCAR-8 ovarian and with SN12C renal was > 100 µM in each case. For the same molecule, the TGI with SNB-75 CNS and with SW-620 colon was > 100 µM each time.

For `C[C@]12CCC(=O)C(O)=C1CC[C@@H]1C2CC[C@]2(C)NC(=O)CCC12` (some centres undefined), the TGI with ACHN renal, in the assay on HCT-116 colon, in the assay with MALME-3M melanoma, in the assay with NCI-H460 lung, with OVCAR-3 ovarian and in the assay on OVCAR-8 ovarian was > 100 µM in each case. In addition, the TGI in the assay on SN12C renal, with SNB-75 CNS and in the assay on SW-620 colon was > 100 µM each time.

For `CN(C)CCNC(=O)c1cccc2nc3cc(Cl)ccc3nc12`, the TGI in the assay with ACHN renal is 4.22 µM; in the assay on HCT-116 colon it was 2.23 µM; in the assay on MALME-3M melanoma it was 4.8 µM; in the assay on OVCAR-3 ovarian, 6.15 µM; in the assay on OVCAR-8 ovarian it was > 21.3 µM; in the assay on SN12C renal, 10.7 µM. Besides, the values for the TGI in the assay with SNB-75 CNS and with SW-620 colon were 15.4 µM and > 23.7 µM, respectively.

For `O=S(=O)(NCCCNc1nccc(-c2c(-c3ccc(F)c(O)c3)nc3sccn23)n1)c1ccc(F)cc1`, the GI50 was 2.24 µM with ACHN renal; 0.0316 µM with MALME-3M melanoma; 2.37 µM in the assay on NCI-H460 lung; 2.3 µM in the assay with OVCAR-8 ovarian; 2.02 µM with SNB-75 CNS; 3.9 µM in the assay on SW-620 colon. Moreover, the TGI with ACHN renal is 8.86 µM; in the assay with MALME-3M melanoma, 1.01 µM; in the assay on NCI-H460 lung it was 6.35 µM; with OVCAR-8 ovarian it was > 100 µM; in the assay on SNB-75 CNS, 8.38 µM; in the assay with SW-620 colon, > 100 µM.

In the case of `COc1ccc2c3c([nH]c2c1[N+](=O)[O-])C(C)N(Cc1ccc([N+](=O)[O-])cc1)CC3` (centres undefined), the TGI was > 100 µM in the assay with ACHN renal; 34.7 µM in the assay with NCI-H460 lung; 64.7 µM in the assay with OVCAR-3 ovarian; 64.4 µM with OVCAR-8 ovarian; 60.7 µM in the assay on SN12C renal; > 100 µM in the assay with SW-620 colon.

For the origin of these results see PubChem BioAssay (NCI).
